US20260317320A1, “C5AR1 ANTAGONISTS AND USES THEREOF” (Vanqua Bio, Inc., priority 2022, published 2026)
Where two headings read alike, the source gives them in different places.

Legend:
[1] = target: T1, complement C5a receptor 1 (C5aR1) (Homo sapiens, UniProt P21730); experiment: β-arrestin recruitment via C5aR1 activation in live CHO-K1 cells (PathHunter), antagonist mode; type: cell-based; details: antagonist mode; recombinant hC5a (EC90) as competing natural agonist; live CHO-K1 cells; read-out: [Antagonist] B-arrestin2 recruitment: Average IC50
T1 construct: β-galactosidase fragment (PathHunter enzyme complementation); host or cells: CHO-K1 (PathHunter CHO-K1 C5aR1 β-arrestin cell line)
T1 sequence (P21730 1-350): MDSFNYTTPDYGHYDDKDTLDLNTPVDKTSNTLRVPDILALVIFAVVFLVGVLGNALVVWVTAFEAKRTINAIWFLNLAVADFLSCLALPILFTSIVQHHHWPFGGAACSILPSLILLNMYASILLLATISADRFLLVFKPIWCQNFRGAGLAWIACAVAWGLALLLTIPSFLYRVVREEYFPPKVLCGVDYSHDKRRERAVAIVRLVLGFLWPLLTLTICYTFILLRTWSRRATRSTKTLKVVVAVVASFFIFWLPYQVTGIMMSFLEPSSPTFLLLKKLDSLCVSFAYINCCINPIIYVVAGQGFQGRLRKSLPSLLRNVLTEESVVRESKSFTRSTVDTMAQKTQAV
Method in brief: (§1)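 Live CHO-K1 cells expressing β-galactosidase fragments fused to β-arrestin and C5aR1; recruitment is read by fragment complementation. In agonist mode compounds are tested alone; in antagonist mode they compete against recombinant hC5a at EC90. IC50 reported in binned ranges.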

[2] = target: T1, complement C5a receptor 1 (C5aR1); experiment: β-arrestin recruitment via C5aR1 activation in live CHO-K1 cells (PathHunter), agonist mode; type: cell-based
Method in brief: as §1

## Cc1cnc2cc([C@H]3CC[C@H](c4ncsc4C)CC3)c(=O)n(Cc3ncccc3C(F)(F)F)c2n1 [compound 163, 3-Methyl-7-((1r,4r)-4-(5-methylthiazol-4-yl)cyclohexyl)-5-((3-(trifluoromethyl)pyridin-2-yl)methyl)pyrido[2,3-b]pyrazin-6(5H)-one]
[1]
  IC50: 500 to 5000 nM
[2]; at 10 μM
  [Agonist] B-arrestin2 recruitment: Average EC50 (nM): Non-Active at 10 μM

## Cc1cnc2cc([C@H]3CC[C@H](c4scnc4C)CC3)c(=O)n(Cc3ncccc3C(F)(F)F)c2n1 [compound 164, 3-Methyl-7-((1r,4r)-4-(4-methylthiazol-5-yl)cyclohexyl)-5-((3-(trifluoromethyl)pyridin-2-yl)methyl)pyrido[2,3-b]pyrazin-6(5H)-one]
[1]
  IC50: 500 to 5000 nM
[2]; at 10 μM
  [Agonist] B-arrestin2 recruitment: Average EC50 (nM): Non-Active at 10 μM

## Cc1cnc2cc(C3CCN(c4nnccc4C(F)(F)F)CC3)c(=O)n(Cc3ncccc3C(F)(F)F)c2n1 [compound 165, 3-Methyl-7-(1-(4-(trifluoromethyl)pyridazin-3-yl)piperidin-4-yl)-5-((3-(trifluoromethyl)pyridin-2-yl)methyl)pyrido[2,3-b]pyrazin-6(5H)-one]
[1]
  IC50: < 500 nM
[2]; at 10 μM
  [Agonist] B-arrestin2 recruitment: Average EC50 (nM): Non-Active at 10 μM

## Cc1cnc2cc([C@H]3CC[C@H](c4ncsc4C)CC3)c(=O)n(Cc3ncccc3OC(F)(F)F)c2n1 [compound 166, 3-Methyl-7-((1r,4r)-4-(5-methylthiazol-4-yl)cyclohexyl)-5-((3-(trifluoromethoxy)pyridin-2-yl)methyl)pyrido[2,3-b]pyrazin-6(5H)-one]
[1]
  IC50: < 500 nM
[2]; at 10 μM
  [Agonist] B-arrestin2 recruitment: Average EC50 (nM): Non-Active at 10 μM

## Cc1cnc2cc(C3CCN(c4c(C)cccc4F)CC3)c(=O)n(Cc3nccnc3OC(F)F)c2n1 [compound 167, 5-((3-(Difluoromethoxy)pyrazin-2-yl)methyl)-7-(1-(2-fluoro-6-methylphenyl)piperidin-4-yl)-3-methylpyrido[2,3-b]pyrazin-6(5H)-one]
[1]
  IC50: < 500 nM
[2]; at 10 μM
  [Agonist] B-arrestin2 recruitment: Average EC50 (nM): Non-Active at 10 μM

## CCOc1nccnc1Cn1c(=O)c([C@H]2CC[C@H](c3c(C)cccc3F)CC2)cc2ncc(C)nc21 [compound 169, 5-((3-Ethoxypyrazin-2-yl)methyl)-7-((1r,4r)-4-(2-fluoro-6-methylphenyl)cyclohexyl)-3-methylpyrido[2,3-b]pyrazin-6(5H)-one]
[1]
  IC50: < 500 nM
[2]; at 10 μM
  [Agonist] B-arrestin2 recruitment: Average EC50 (nM): Non-Active at 10 μM

## FC(F)(F)c1cccnc1CN1CC(C2CCN(c3ncccc3Cl)CC2)=Cc2nccnc21 [compound 170, 7-(1-(3-Chloropyridin-2-yl)piperidin-4-yl)-5-((3-(trifluoromethyl)pyridin-2-yl)methyl)-5,6-dihydropyrido[2,3-b]pyrazine]
[1]
  IC50: < 500 nM
[2]; at 10 μM
  [Agonist] B-arrestin2 recruitment: Average EC50 (nM): Non-Active at 10 μM

## COc1nccnc1Cn1c(=O)c([C@H]2CC[C@H](c3c(C)cccc3F)CC2)cc2ncc(C)nc21 [compound 173, 7-((1r,4r)-4-(2-Fluoro-6-methylphenyl)cyclohexyl)-5-((3-methoxypyrazin-2-yl)methyl)-3-methylpyrido[2,3-b]pyrazin-6(5H)-one]
[1]
  IC50: < 500 nM
[2]; at 10 μM
  [Agonist] B-arrestin2 recruitment: Average EC50 (nM): Non-Active at 10 μM

## Cc1cnc2cc([C@H]3CC[C@H](c4c(C)cccc4F)CC3)c(=O)n(Cc3ncccc3C(F)F)c2n1 [compound 176, 5-((3-(Difluoromethyl)pyridin-2-yl)methyl)-7-((1r,4r)-4-(2-fluoro-6-methylphenyl)cyclohexyl)-3-methylpyrido[2,3-b]pyrazin-6(5H)-one]
[1]
  IC50: < 500 nM
[2]
  [Agonist] B-arrestin2 recruitment: Average EC50 (nM): Non-Active

## Cc1cnc2cc([C@H]3CC[C@H](c4c(C)cccc4F)CC3)c(=O)n(Cc3ncccc3C(C)(F)F)c2n1 [compound 177, 5-((3-(1,1-Difluoroethyl)pyridin-2-yl)methyl)-7-((1r,4r)-4-(2-fluoro-6-methylphenyl)cyclohexyl)-3-methylpyrido[2,3-b]pyrazin-6(5H)-one]
[1]
  IC50: < 500 nM
[2]
  [Agonist] B-arrestin2 recruitment: Average EC50 (nM): Non-Active

## Cc1cnc2cc([C@H]3CC[C@H](c4cnccc4C(F)F)CC3)c(=O)n(Cc3ncccc3C(F)(F)F)c2n1 [compound 178, 7-((1r,4r)-4-(4-(Difluoromethyl)pyridin-3-yl)cyclohexyl)-3-methyl-5-((3-(trifluoromethyl)pyridin-2-yl)methyl)pyrido[2,3-b]pyrazin-6(5H)-one]
[1]
  IC50: < 500 nM
[2]
  [Agonist] B-arrestin2 recruitment: Average EC50 (nM): Non-Active

## Cc1cnc2cc([C@H]3CC[C@H](c4ncccc4C(F)F)CC3)c(=O)n(Cc3ncccc3C(F)(F)F)c2n1 [compound 179, 7-((1r,4r)-4-(3-(Difluoromethyl)pyridin-2-yl)cyclohexyl)-3-methyl-5-((3-(trifluoromethyl)pyridin-2-yl)methyl)pyrido[2,3-b]pyrazin-6(5H)-one]
[1]
  IC50: < 500 nM
[2]; at 10 μM
  [Agonist] B-arrestin2 recruitment: Average EC50 (nM): Non-Active at 10 μM

## Cc1cnc2cc([C@H]3CC[C@H](c4ncccc4C(F)(F)F)CC3)c(=O)n(Cc3ncccc3C(F)(F)F)c2n1 [compound 180, 3-Methyl-7-((1r,4r)-4-(3-(trifluoromethyl)pyridin-2-yl)cyclohexyl)-5-((3-(trifluoromethyl)pyridin-2-yl)methyl)pyrido[2,3-b]pyrazin-6(5H)-one]
[1]
  IC50: < 500 nM
[2]; at 10 μM
  [Agonist] B-arrestin2 recruitment: Average EC50 (nM): Non-Active at 10 μM

## Cc1cnc2cc(C3CCN(c4ccc5c(cnn5C)c4)CC3)c(=O)n(Cc3ncccc3C(F)(F)F)c2n1 [compound 181, 3-Methyl-7-(1-(1-methyl-1H-indazol-5-yl)piperidin-4-yl)-5-((3-(trifluoromethyl)pyridin-2-yl)methyl)pyrido[2,3-b]pyrazin-6(5H)-one]
[1]
  IC50: 5000 to 100000 nM
[2]; at 10 μM
  [Agonist] B-arrestin2 recruitment: Average EC50 (nM): Non-Active at 10 μM

## Cc1cnc2c(cc([C@H]3CC[C@H](c4c(C)cccc4F)CC3)c(=O)n2Cc2ncccc2C(F)(F)F)n1 [compound 182, 7-((1r,4r)-4-(2-Fluoro-6-methylphenyl)cyclohexyl)-2-methyl-5-((3-(trifluoromethyl)pyridin-2-yl)methyl)pyrido[2,3-b]pyrazin-6(5H)-one]
[1]
  IC50: < 500 nM
[2]; at 10 μM
  [Agonist] B-arrestin2 recruitment: Average EC50 (nM): Non-Active at 10 μM

## Cc1ccc2cc([C@H]3CC[C@H](c4c(C)cccc4F)CC3)c(=O)n(Cc3ncccc3C(F)(F)F)c2n1 [compound 183, 3-((1r,4r)-4-(2-Fluoro-6-methylphenyl)cyclohexyl)-7-methyl-1-((3-(trifluoromethyl)pyridin-2-yl)methyl)-1,8-naphthyridin-2(1H)-one]
[1]
  IC50: < 500 nM
[2]; at 10 μM
  [Agonist] B-arrestin2 recruitment: Average EC50 (nM): Non-Active at 10 μM

## Cc1cnc2cc(C3CCN(c4c(F)ccc5c4cnn5C)CC3)c(=O)n(Cc3ncccc3C(F)(F)F)c2n1 [compound 184, 7-(1-(5-Fluoro-1-methyl-1H-indazol-4-yl)piperidin-4-yl)-3-methyl-5-((3-(trifluoromethyl)pyridin-2-yl)methyl)pyrido[2,3-b]pyrazin-6(5H)-one]
[1]
  IC50: 500 to 5000 nM
[2]; at 10 μM
  [Agonist] B-arrestin2 recruitment: Average EC50 (nM): Non-Active at 10 μM

## Cc1cnc2cc(C3CCN(c4c(C)ccc5c4cnn5C)CC3)c(=O)n(Cc3ncccc3C(F)(F)F)c2n1 [compound 185, 7-(1-(1,5-Dimethyl-1H-indazol-4-yl)piperidin-4-yl)-3-methyl-5-((3-(trifluoromethyl)pyridin-2-yl)methyl)pyrido[2,3-b]pyrazin-6(5H)-one]
[1]
  IC50: 500 to 5000 nM
[2]; at 10 μM
  [Agonist] B-arrestin2 recruitment: Average EC50 (nM): Non-Active at 10 μM

## Cc1cnc2cc(C3CCN(c4nn(C)c5ccccc45)CC3)c(=O)n(Cc3ncccc3C(F)(F)F)c2n1 [compound 186, 3-Methyl-7-(1-(1-methyl-1H-indazol-3-yl)piperidin-4-yl)-5-((3-(trifluoromethyl)pyridin-2-yl)methyl)pyrido[2,3-b]pyrazin-6(5H)-one]
[1]
  IC50: 5000 to 100000 nM
[2]; at 10 μM
  [Agonist] B-arrestin2 recruitment: Average EC50 (nM): Non-Active at 10 μM

## Cc1cnc2cc([C@H]3CC[C@H](c4cnccc4C(C)(F)F)CC3)c(=O)n(Cc3ncccc3C(F)(F)F)c2n1 [compound 188, 7-((1r,4r)-4-(4-(1,1-Difluoroethyl)pyridin-3-yl)cyclohexyl)-3-methyl-5-((3-(trifluoromethyl)pyridin-2-yl)methyl)pyrido[2,3-b]pyrazin-6(5H)-one]
[1]
  IC50: < 500 nM
[2]; at 10 μM
  [Agonist] B-arrestin2 recruitment: Average EC50 (nM): Non-Active at 10 μM

## COc1ccnc(F)c1[C@H]1CC[C@H](c2cc3ncc(C)nc3n(Cc3ncccc3C(F)(F)F)c2=O)CC1 [compound 189, 7-((1r,4r)-4-(2-Fluoro-4-methoxypyridin-3-yl)cyclohexyl)-3-methyl-5-((3-(trifluoromethyl)pyridin-2-yl)methyl)pyrido[2,3-b]pyrazin-6(5H)-one]
[1]
  IC50: < 500 nM
[2]; at 10 μM
  [Agonist] B-arrestin2 recruitment: Average EC50 (nM): Non-Active at 10 μM

## Cc1cnc2cc([C@H]3CC[C@H](c4c(C)nn(C)c4C)CC3)c(=O)n(Cc3ncccc3C(F)(F)F)c2n1 [compound 190, 3-Methyl-5-((3-(trifluoromethyl)pyridin-2-yl)methyl)-7-((1r,4r)-4-(1,3,5-trimethyl-1H-pyrazol-4-yl)cyclohexyl)pyrido[2,3-b]pyrazin-6(5H)-one]
[1]
  IC50: 500 to 5000 nM
[2]; at 10 μM
  [Agonist] B-arrestin2 recruitment: Average EC50 (nM): Non-Active at 10 μM
